Numbering of substitutions follows the chain as printed. In names and notes the source's numbering stands.
How the values were obtained:
[1] = molecular target: T1, scyllo-inositol dehydrogenase with L-glucose dehydrogenase activity (Pl-scyllo-IDH) (Paracoccus laeviglucosivorans, UniProt K7ZP76); test: X-ray crystal structure, […] Å; format: binding
T1 construct: gene lgdA; lgdA in pET21a(+), expressed in E. coli BL21(DE3), Ni-NTA purified; homo-tetramer, active site includes H318 of the adjacent subunit
T1 sequence (K7ZP76 1-372): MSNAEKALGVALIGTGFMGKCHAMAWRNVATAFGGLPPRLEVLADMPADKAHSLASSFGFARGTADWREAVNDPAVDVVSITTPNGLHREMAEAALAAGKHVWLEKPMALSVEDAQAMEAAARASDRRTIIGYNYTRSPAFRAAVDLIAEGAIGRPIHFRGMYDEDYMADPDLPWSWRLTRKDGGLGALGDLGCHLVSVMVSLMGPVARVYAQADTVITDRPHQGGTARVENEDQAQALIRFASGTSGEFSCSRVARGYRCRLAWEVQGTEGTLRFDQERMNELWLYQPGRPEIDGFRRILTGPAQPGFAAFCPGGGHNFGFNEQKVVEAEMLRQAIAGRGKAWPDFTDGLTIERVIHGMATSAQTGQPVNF

[2] = molecular target: T1, scyllo-inositol dehydrogenase with L-glucose dehydrogenase activity (Pl-scyllo-IDH); test: X-ray crystal structure, […] Å; format: binding; settings: crystal soaked with 100 mM myo-inositol and 25 mM NAD+; active site
[3] = molecular target: T1, scyllo-inositol dehydrogenase with L-glucose dehydrogenase activity (Pl-scyllo-IDH); test: X-ray crystal structure, […] Å; format: binding; remark: listed apart in the source
[4] = substrate: O[C@H]1[C@H](O)[C@@H](O)[C@H](O)[C@@H](O)[C@@H]1O; test: purified protein; format: biochemical, Paracoccus laeviglucosivorans; settings: 20 mM NAD+, 100 mM Tris-HCl, pH 9.0
[5] = molecular target: the molecule itself; test: crystal structure; homo-tetramer in the asymmetric unit, space group P212121; crystals grown at 20°C by hanging-drop vapor diffusion, 0.1 M sodium acetate pH 4.8-5.4, 12-35% PEG 3350; apo form and complexes with NAD+/NADH and sugars

O=C1O[C@@H](CO)[C@H](O)[C@@H](O)[C@@H]1O [L-glucono-1,5-lactone]
X-ray crystal structure, 1.8 Å ([1]; crystal soaked with 100 mM L-glucose and 25 mM NAD+, active site, NADH complex): bound molecule in the active site was in fact the reaction product of L-glucose oxidation

O[C@H]1[C@H](O)[C@@H](O)[C@H](O)[C@@H](O)[C@H]1O [myo-inositol]
X-ray crystal structure, 2.3 Å [2]: complex structures of Pl-scyllo-IDH with scyllo-inosose and myo-inositol were also determined

NC(=O)C1=CN([C@@H]2O[C@H](COP(=O)(O)OP(=O)(O)OC[C@H]3O[C@@H](n4cnc5c(N)ncnc54)[C@H](O)[C@@H]3O)[C@@H](O)[C@H]2O)C=CC1 [NADH]
X-ray crystal structure, 1.8 Å ([1]; complex with L-glucono-1,5-lactone, crystal soaked with NAD+, assigned as NADH): the bound cofactor molecule might therefore be NADH

NC(=O)c1ccc[n+]([C@@H]2O[C@H](COP(=O)(O)OP(=O)(O)OC[C@H]3O[C@@H](n4cnc5c(N)ncnc54)[C@H](O)[C@@H]3O)[C@@H](O)[C@H]2O)c1 [NAD^+]
X-ray crystal structure, 2.0 Å ([3]; complex with scyllo-inosose (also with myo-inositol, 5YA8, 2.3 Å), 25 mM NAD+ soak): myo-inositol/NAD^+ and scyllo-inosose/NAD^+ complexes have been deposited

O=C1[C@@H](O)[C@H](O)[C@@H](O)[C@H](O)[C@H]1O [scyllo-inosose]
X-ray crystal structure, 2.0 Å ([3]; crystal soaked with 100 mM scyllo-inosose and 25 mM NAD+, active site): the carbonyl oxygen located between K106 and H195 formed hydrogen bonds

B1: scyllo-inositol dehydrogenase with L-glucose dehydrogenase activity (Pl-scyllo-IDH) (Paracoccus laeviglucosivorans; R178A) (protein)
chain: T1 sequence (K7ZP76 1-372) with R178A
notes: lgdA in pET21a(+), expressed in E. coli BL21(DE3), Ni-NTA purified; homo-tetramer, active site includes H318 of the adjacent subunit
Km [4]: 40.6 ± 7.2 mM
kcat [4]: 8.1 ± 0.65 s⁻¹
kcat/Km [4]: 200 M⁻¹ s⁻¹

B2: Paracoccus laeviglucosivorans scyllo-inositol dehydrogenase (enzyme)
chain: T1 sequence (K7ZP76 1-372)
notes: Protein encoded by the lgdA gene of Paracoccus laeviglucosivorans (scyllo-inositol dehydrogenase, GFO/IDH/MocA family); A selenomethionine-substituted form (E. coli B834(DE3)) was used only for phasing; Crystals were also soaked with NAD+ and L-glucose, myo-inositol or scyllo-inosose; also called Pl-scyllo-IDH; LgdA; source: E. coli BL21(DE3), pET21a(+), purified (Ni-NTA agarose, dialysis)
stoichiometry N [5]: 4

From publication PMC5969746 (PLoS ONE, 2018)
